From ChEMBL document CHEMBL1134698 (Bioorg Med Chem Lett, 2001)

Key:
[1] = molecular target: Sodium-dependent dopamine transporter (Rattus norvegicus, UniProt P23977); test: Binding affinity was evaluated by measuring the inhibition of [3H]WIN-35428 binding to Dopamine transporter in rat brain tissue; type: tissue-based
[2] = molecular target: Norepinephrine transporter (Rattus norvegicus, UniProt Q9WTR4); test: Binding affinity was evaluated by measuring inhibiting the binding of [3H]nisoxetine to Norepinephrine transporter in rat brain tissue; type: tissue-based
[3] = species on record: Rattus norvegicus; test: Inhibition of [3H]dopamine reuptake in rat […]; type: functional
[4] = molecular target: Sodium-dependent serotonin transporter (Rattus norvegicus, UniProt P31652); test: Binding affinity was evaluated by measuring inhibiting the binding of [3H]citalopram to Serotonin transporter in rat brain tissue; type: tissue-based
[5] = molecular target: Monoamine transporters; serotonin & dopamine (Homo sapiens) (UniProt P31645+Q01959); test: Selectivity was measured as SERT/DAT; type: protein assay
Monoamine transporters; serotonin & dopamine (Homo sapiens), sequence (P31645 whole entry, looked up): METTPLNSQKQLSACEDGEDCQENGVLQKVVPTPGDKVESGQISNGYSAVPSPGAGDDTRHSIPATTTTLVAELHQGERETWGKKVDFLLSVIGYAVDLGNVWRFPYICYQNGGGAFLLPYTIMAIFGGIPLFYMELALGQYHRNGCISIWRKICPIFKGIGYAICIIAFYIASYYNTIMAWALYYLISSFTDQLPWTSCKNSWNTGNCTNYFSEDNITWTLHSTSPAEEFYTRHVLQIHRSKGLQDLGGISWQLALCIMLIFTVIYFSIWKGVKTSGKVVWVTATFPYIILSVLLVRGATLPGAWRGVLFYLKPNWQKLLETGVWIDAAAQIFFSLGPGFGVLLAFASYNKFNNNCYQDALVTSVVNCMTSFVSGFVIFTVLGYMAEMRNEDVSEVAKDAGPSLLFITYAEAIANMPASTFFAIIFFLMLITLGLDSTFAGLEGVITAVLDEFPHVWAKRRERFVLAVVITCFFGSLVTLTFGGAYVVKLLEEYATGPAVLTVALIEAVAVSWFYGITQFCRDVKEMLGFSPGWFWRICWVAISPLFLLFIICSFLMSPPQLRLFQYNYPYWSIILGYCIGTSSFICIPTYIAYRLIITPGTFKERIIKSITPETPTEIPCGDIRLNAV
Monoamine transporters; serotonin & dopamine (Homo sapiens), sequence (Q01959 whole entry, looked up): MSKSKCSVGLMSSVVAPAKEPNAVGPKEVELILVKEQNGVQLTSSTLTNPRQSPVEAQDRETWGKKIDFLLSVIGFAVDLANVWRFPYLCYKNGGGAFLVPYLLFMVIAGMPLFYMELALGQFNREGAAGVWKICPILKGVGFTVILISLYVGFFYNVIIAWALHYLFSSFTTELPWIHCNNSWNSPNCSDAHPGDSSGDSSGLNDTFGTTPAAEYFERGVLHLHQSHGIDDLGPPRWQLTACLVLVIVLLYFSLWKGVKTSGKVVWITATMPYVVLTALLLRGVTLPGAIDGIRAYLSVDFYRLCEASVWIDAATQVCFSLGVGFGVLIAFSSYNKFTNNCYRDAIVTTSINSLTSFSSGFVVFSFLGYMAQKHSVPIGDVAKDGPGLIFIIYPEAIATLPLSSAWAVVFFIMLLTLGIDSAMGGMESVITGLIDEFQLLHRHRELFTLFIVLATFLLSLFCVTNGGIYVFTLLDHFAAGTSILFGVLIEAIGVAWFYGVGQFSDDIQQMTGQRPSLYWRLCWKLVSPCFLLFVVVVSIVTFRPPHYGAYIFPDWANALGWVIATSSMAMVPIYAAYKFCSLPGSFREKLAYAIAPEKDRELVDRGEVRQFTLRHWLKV

Sodium-dependent serotonin transporter, sequence (P31652 whole entry): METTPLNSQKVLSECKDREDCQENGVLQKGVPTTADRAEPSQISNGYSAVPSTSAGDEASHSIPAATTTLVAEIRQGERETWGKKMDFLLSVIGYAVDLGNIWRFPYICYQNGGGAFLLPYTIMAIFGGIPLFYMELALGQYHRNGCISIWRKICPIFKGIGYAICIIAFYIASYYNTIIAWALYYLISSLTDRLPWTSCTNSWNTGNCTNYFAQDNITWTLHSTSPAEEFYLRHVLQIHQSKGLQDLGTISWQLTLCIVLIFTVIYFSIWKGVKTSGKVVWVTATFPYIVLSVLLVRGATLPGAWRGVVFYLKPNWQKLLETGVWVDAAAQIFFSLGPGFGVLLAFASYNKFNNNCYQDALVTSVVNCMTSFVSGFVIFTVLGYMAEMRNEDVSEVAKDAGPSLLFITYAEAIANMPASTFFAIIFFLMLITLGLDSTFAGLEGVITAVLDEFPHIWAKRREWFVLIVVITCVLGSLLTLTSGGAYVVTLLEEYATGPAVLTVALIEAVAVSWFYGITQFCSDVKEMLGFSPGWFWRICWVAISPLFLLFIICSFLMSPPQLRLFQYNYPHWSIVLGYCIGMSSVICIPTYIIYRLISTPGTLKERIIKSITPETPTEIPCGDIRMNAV
Norepinephrine transporter, sequence (Q9WTR4 whole entry): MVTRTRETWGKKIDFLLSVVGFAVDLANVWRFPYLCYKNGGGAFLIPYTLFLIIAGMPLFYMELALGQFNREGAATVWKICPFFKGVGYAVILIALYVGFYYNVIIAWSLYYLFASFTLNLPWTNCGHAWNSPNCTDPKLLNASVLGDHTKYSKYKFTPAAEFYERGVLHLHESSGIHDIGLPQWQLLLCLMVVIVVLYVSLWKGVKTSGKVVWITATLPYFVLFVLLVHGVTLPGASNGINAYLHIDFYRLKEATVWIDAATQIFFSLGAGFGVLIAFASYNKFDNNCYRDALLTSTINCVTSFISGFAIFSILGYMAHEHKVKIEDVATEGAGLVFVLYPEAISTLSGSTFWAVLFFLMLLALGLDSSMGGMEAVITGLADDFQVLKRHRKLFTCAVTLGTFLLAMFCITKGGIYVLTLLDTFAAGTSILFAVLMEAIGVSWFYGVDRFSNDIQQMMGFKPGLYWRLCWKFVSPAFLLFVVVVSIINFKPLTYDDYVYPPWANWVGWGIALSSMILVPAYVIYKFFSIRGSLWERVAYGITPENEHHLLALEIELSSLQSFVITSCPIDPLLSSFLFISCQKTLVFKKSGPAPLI
Sodium-dependent dopamine transporter, sequence (P23977 whole entry): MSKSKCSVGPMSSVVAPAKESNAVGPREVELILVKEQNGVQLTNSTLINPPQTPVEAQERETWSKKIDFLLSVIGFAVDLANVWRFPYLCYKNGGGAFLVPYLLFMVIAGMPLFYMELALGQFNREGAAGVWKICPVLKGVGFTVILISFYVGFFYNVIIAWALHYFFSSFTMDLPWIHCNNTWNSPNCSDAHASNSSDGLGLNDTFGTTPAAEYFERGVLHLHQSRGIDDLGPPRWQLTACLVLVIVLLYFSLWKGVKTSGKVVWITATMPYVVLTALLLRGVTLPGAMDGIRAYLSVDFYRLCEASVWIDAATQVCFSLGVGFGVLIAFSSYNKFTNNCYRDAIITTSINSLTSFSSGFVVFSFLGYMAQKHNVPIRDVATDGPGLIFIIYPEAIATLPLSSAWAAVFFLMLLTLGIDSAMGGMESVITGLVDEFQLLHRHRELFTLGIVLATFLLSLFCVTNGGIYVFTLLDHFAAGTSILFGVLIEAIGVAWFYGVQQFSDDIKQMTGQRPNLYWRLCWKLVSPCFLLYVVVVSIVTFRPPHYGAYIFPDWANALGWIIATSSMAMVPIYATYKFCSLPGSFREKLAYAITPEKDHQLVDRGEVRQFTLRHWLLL

For `Fc1ccc(CNC2CCC(C(c3ccccc3)c3ccccc3)NC2)cc1` (stereo in doubt) [listing 1 of 2 here], the IC50 [1] was 0.0212 µM, the IC50 [2] was 4.47 µM and the IC50 [3] was 0.106 µM. The IC50 [4] was 1.33 µM.

With `O=C(NC1CCC(C(c2ccccc2)c2ccccc2)NC1)c1ccc(F)cc1` (racemic) the IC50 [1] was 0.087 µM, the IC50 [2] was 5.61 µM and the IC50 [4] was 6.21 µM. The Selectivity [5] was 71.4.

`Fc1ccc(CNC2CCC(C(c3ccccc3)c3ccccc3)NC2)cc1` (cis isomer) [listing 1 of 2 here] gave an IC50 [2] of 1.35 µM, an IC50 [3] of 0.0289 µM and an IC50 [4] of 2.81 µM.

With `Fc1ccc(CNC2CCC(C(c3ccccc3)c3ccccc3)NC2)cc1` (cis isomer) [listing 2 of 2 here] the Selectivity [5] was 93.7.

For `Fc1ccc(CNC2CCC(C(c3ccccc3)c3ccccc3)NC2)cc1` (stereo in doubt) [listing 2 of 2 here], the Selectivity [5] was 6.28.

For `COC(=O)[C@@H]1C2CC[C@@H](C[C@@H]1OC(=O)c1ccccc1)N2C` (single isomer, unassigned) [COCAINE], the IC50 ([3]; Rattus norvegicus) was 0.191 µM.

`Fc1ccc(CN2CCC(CNCC(c3ccccc3)c3ccccc3)CC2)cc1` showed a Selectivity [5] of 6.9.
